These results are taken from US20020090352A1, “Compositions and methods for use in modulating immune system function” (priority 2000, published 2002).

Data set [1] has as its system immature LC (Langerhans cells). Nature of the data set: Activation of immature LC: HLA-DR and CD86 expression by flow cytometry. It counts as cell-based, human. Also on record: class II or CD86 upregulation on immature LC: dose or concentration left out as unconfirmed. The following applies: for activation of immature LC (class II / CD86, DRhi-CD86hi) in the presence of TNFα: TNFα 1-10 ng/ml. The procedure:
Immature LC were cultured with retinol or vehicle and/or TNFα for 40 h. Cells were washed and incubated with HLA-DR-FITC and CD86-PE or isotype controls for 15 min at 4° C. 10^4 events were then analyzed with a FACScalibur (Becton Dickinson) using CellQuest software (Becton Dickinson). % are given for DRhi CD86hi cells gated as indicated. Data are representative of three experiments on different donors.
FIG. 3A: Day 6 immature LC were cultured for 40 h with TNFα and/or retinoids or vehicle as indicated. Cells were washed and stained with HLA-DR-FITC and CD86-PE or isotype controls for 15 min at 4° C. 10^4 events were then analyzed with a FACScalibur (Becton Dickinson) using CellQuest software (Becton Dickinson). Data are given for DRhi/CD86 hi cells gated as indicated, and are representative of 10 experiments on different donors.
Percentages of DRhi/CD86 hi cells are represented and results are expressed as the mean±SD of at last three experiments on different donors.
Flow Cytometry Analysis. 1×10^5 cells were incubated in 96-well plates (Becton Dickinson Labware, Franklin Lakes, N.J.) for 15 min at 4 ° C. in PBS, 2% human AB serum, and 0.01 M NaN3, with FITC-conjugated anti-DR (Immunotech, Marseille, France) and PE-conjugated CD86 (Pharmingen, San Diego, Calif.) at the appropriate concentration, or with control isotype-matched irrelevant mAbs at the same concentration. After washing, 10^4 events were analyzed with a FACScalibur (Becton Dickinson Immunocytometry Systems, Mountain View, Calif.) using CellQuest software.

Data set [2] relates to immature LC (Langerhans cells). Nature of the data set: Apoptosis of immature LC, flow cytometry of PI stained nuclei (sub 2N particles) / annexin V. It counts as cell-based, human.
Another data set addresses T1, RARα AF2 (Homo sapiens, UniProt P10276).
T1 construct: expressed in transfected cells
T1 sequence (P10276 183-417 limits assumed): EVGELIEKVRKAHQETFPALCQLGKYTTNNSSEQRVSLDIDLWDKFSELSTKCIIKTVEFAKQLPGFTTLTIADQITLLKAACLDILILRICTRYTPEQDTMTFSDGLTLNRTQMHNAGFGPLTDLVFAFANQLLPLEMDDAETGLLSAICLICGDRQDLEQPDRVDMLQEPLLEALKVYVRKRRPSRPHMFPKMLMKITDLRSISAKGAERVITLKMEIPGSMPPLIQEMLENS
The following applies: retinoid activity, reporter cells; cited from earlier work.

In another data set the target is T2, RARβ AF2 (Homo sapiens, UniProt P10826). Note: key: '+' = agonist; '(+)' = weak agonist; '−' = antagonist; '0' = absence of agonist and antagonist activities.
T2 construct: expressed in transfected cells
T2 sequence (P10826 183-417 limits assumed): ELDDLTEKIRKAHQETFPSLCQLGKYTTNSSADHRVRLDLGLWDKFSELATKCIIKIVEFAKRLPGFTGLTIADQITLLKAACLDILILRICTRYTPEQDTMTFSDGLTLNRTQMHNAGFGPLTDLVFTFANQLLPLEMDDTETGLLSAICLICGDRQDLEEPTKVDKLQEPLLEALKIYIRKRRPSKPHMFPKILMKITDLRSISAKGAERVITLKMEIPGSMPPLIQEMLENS
The following applies: retinoid activity, reporter cells; cited from earlier work.

The next data set concerns the target T3, RARγ AF2 (Homo sapiens, UniProt P13631). Note: key: '+' = agonist; '(+)' = weak agonist; '−' = antagonist; '0' = absence of agonist and antagonist activities.
T3 construct: expressed in transfected cells
T3 sequence (P13631 185-419 limits assumed): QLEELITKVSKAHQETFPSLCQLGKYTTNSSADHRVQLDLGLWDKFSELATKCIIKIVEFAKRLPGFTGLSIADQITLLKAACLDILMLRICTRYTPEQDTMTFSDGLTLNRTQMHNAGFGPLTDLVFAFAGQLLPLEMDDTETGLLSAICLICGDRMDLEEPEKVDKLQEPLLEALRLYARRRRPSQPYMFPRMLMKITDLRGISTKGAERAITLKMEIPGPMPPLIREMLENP
The following applies: retinoid activity, reporter cells; cited from earlier work.

The next data set has as its system RXR AF2. The following applies: retinoid activity, reporter cells; cited from earlier work.
[3] abbreviates: 1 nM, two days in culture, mean ± SD.
[4] abbreviates: 10 nM, two days in culture, mean ± SD.
[5] abbreviates: 100 nM, two days in culture, mean ± SD.
The mark [6] stands for this setting: 1 μM, two days in culture, mean ± SD.

“Also recorded” adds a separate entry of the source.
Throughout, for RARα AF2: key: '+' = agonist; '(+)' = weak agonist; '−' = antagonist; '0' = absence of agonist and antagonist activities.

Turning to `Cc1ccc(S(=O)(=O)N[C@@H](Cc2ccccc2)C(=O)CCl)cc1` [TPCK], in data set [1] (LCs treated with tRA and TNFα, TPCK 10 nM), the “inhibition of the increase of class II and CD86 on LCs” value is on record as 50%. Moreover, in data set [1] (TPCK 10 nM, LCs treated with tRA and TNFα), the “toxicity on LCs” value is listed as “without any evidence of toxicity”.

Consider `CC1(C)CC=C(C#Cc2ccccc2)c2cc(/C=C/c3ccc(C(=O)O)cc3)ccc21` [Compound VIII], for which the “percentage of apoptotic (<2N) particles” value in data set [2] (100 nM SR11237 + 1 nM ligand), in data set [2] (100 nM SR11237 + 10 nM ligand), in data set [2] (100 nM SR11237 + 100 nM ligand) and in data set [2] (100 nM SR11237 + 1 μM ligand) was “≦5%” in each case. In data set [2] (result in words), the “inhibition of retinoid-induced apoptosis / cell death of immature LC” value was “inhibited retinol-induced cell death; also recorded: strongly inhibited”. For the same compound, the “effect on Compound II / SR11237 synergy for TNFα-induced LC activation” value in data set [1] (result in words) is “inhibited”. Moreover, the “effect on TNFα-SR11237 synergism for LC activation” value in data set [1] (result in words) is “only a weak effect”. In addition, the “effect on synergy between TNFα and retinol, tRA or Compound I on LC activation” value in data set [1] (result in words) is listed as “inhibited”. For the same compound, the “effect on 9cRA-induced LC activation” value in data set [1] (with TNFα, result in words) is “only partially blocked”. Moreover, the “RARα AF2” value on RARα AF2 is listed as “−”. Also, on RARβ AF2, the “RARβ AF2” value is “−”. At RARγ AF2, the “RARγ AF2” value is reported as “−”. Moreover, in the data set on RXR AF2, the “RXR AF2” value is 0.

In the case of “IL-1β: Human recombinant IL-1β from R&D Systems”, in data set [2] (result in words), the “inhibition of retinoid-induced apoptosis / cell death of immature LC” value is given as “inhibited the apoptotic effect of retinoids”.

For the compound `CC1(C)CC=C(c2ccccc2)c2cc(/C=C/c3ccc(C(=O)O)cc3Cl)ccc21` [Compound III, (E)-3-Chloro-4-[2-(5,6-dihydro-5,5-dimethyl-8-phenyl-2-naphthalenyl)-ethenyl] benzoic acid], the “percentage of apoptotic (<2N) particles” value is recorded as “≦5%” in data set [2] (setting [3]); “≦5%” in data set [2] (setting [4]); “≦5%” in data set [2] (100 nM SR11237 + 1 nM ligand); “≦5%” in data set [2] (100 nM SR11237 + 10 nM ligand); 16 ± 3% in data set [2] (100 nM SR11237 + 100 nM ligand); 30 ± 2% in data set [2] (100 nM SR11237 + 1 μM ligand). The “percentage of apoptotic (<2N) particles” value in data set [2] (setting [5]) and in data set [2] (setting [6]) was “≦5%” throughout. Besides, in data set [2] (result in words), the “synergy with the pan-RXR agonist SR11237 to induce LC death” value was “synergized with the pan-RXR agonist to induce LC death”. In addition, the “activation of immature LC (class II / CD86, DRhi-CD86hi) in the presence of TNFα” value in data set [1] (result in words) is recorded as “weak effect; also recorded: upregulate”. Further, the “RARα AF2” value at RARα AF2 is 0. For the same compound, the “RARβ AF2” value at RARβ AF2 is on record as “+”. Further, at RARγ AF2, the “RARγ AF2” value was 0. The “RXR AF2” value in the data set on RXR AF2 is 0.

Regarding `CC1(C)CC=C(c2ccccc2)c2cc(/C=C/c3ccc(C(=O)O)cc3)ccc21` [Compound VII], the “percentage of apoptotic (<2N) particles” value in data set [2] (setting [3]) was “≦5%”; in data set [2] (setting [4]) it was “≦5%”; in data set [2] (100 nM SR11237 + 1 nM ligand), “≦5%”; in data set [2] (100 nM SR11237 + 10 nM ligand), 5%; in data set [2] (100 nM SR11237 + 100 nM ligand) it was 20 ± 6%; in data set [2] (100 nM SR11237 + 1 μM ligand), 19 ± 7%. The figures for the “percentage of apoptotic (<2N) particles” value in data set [2] (setting [5]) and in data set [2] (setting [6]) were “≦5%” and 10 ± 6%, respectively. The “synergy with the pan-RXR agonist SR11237 to induce LC death” value in data set [2] (result in words) is recorded as “synergized with the pan-RXR agonist to induce LC death”. In addition, the “activation of immature LC (class II / CD86, DRhi-CD86hi) in the presence of TNFα” value in data set [1] (result in words) is “weak effect”. In addition, at RARα AF2, the “RARα AF2” value is recorded as “−”. Also, the “RARβ AF2” value on RARβ AF2 is “+”. For the same compound, on RARγ AF2, the “RARγ AF2” value is on record as “−”. Moreover, in the data set with RXR AF2, the “RXR AF2” value is 0.

With `CC1=C(/C=C/C(C)=C\C=C\C(C)=C\C(=O)O)C(C)(C)CCC1` [Compound 9cRA, 9-cis retinoic acid, reference compound], the “percentage of apoptotic (<2N) particles” value in data set [2] (setting [3]) is recorded as “≦5%”; in data set [2] (setting [4]) it was “≦5%”; in data set [2] (setting [5]), 8 ± 3%; in data set [2] (setting [6]) it was 30 ± 9%. Also, the “induction of apoptosis / death of immature LC by the substance on its own” value in data set [2] (no TNFα, result in words) was “induced a similar dose- and time-dependent increase in death”. The “activation of immature LC (class II / CD86, DRhi-CD86hi) in the presence of TNFα” value in data set [1] (result in words) is reported as “upregulate”. Besides, the “class II or CD86 upregulation on immature LC” value in data set [1] (in the absence or at low concentrations of TNFα) is reported as “did not significantly induce”. Further, in the data set with RXR AF2, the “RXR AF2” value was “+”.

With TNFα, in data set [2] (1 ng/ml of TNFα), the “inhibition of the pro-apoptotic effects of retinol” value is reported as more than 50%. In addition, the “percentage of apoptotic (<2N) particles” value was 11 ± 1% in data set [2] (agent + Cmpd. I 1 μM, Cmpd. II 1 μM, Cmpd. VIII 1 μM, Z-Vad 50 μM, TNFα 10 ng/ml, CD40L coculture); 14 ± 2% in data set [2] (agent + Compound I 100 nM + SR11237 100 nM, Cmpd. II 1 μM, Cmpd. VIII 1 μM, Z-Vad 50 μM, TNFα 10 ng/ml, CD40L coculture); 4.5 ± 1% in data set [2] (agent + Rol 1 μM, Cmpd. VIII 1 μM, TNFα 10 ng/ml); 8 ± 7% in data set [2] (agent + tRA 1 μM, Cmpd. II 1 μM, Cmpd. VIII 1 μM, Z-Vad 50 μM, TNFα 10 ng/ml, CD40L coculture); “≦5%” in data set [2] (agent alone (column 0), Cmpd. II 1 μM, Cmpd. VIII 1 μM, Z-Vad 50 μM, TNFα 10 ng/ml, CD40L coculture). Besides, in data set [2] (result in words), the “inhibition of retinoid-induced apoptosis / cell death of immature LC” value is reported as “inhibited the pro-apoptotic effects”.
